Experimental data reported in patent publication US20100204222A1, “PYRIDOPYRIMIDINE DERIVATIVES AS P13 KINASE INHIBITORS” (GlaxoSmithKline, LLC, priority 2007, published 2010).

target: T1, PI3Kα (Homo sapiens, UniProt P42336); assay: PI3K alpha TR-FRET assay / PI3K alpha Leadseeker SPA assay; format: biochemical; details: in at least one experimental run; read-out: IC50 value against PI3Kα
T1 construct: His; made in house
Protocol: Compounds of the present invention were tested according to the following assays and found as inhibitors of PI3 kinases, particularly PI3Kα. The exemplified compounds were tested and found active against PI3Kα. The IC50's ranged from about 1 nM to 10 μM.
The PI3-Kinase assay has been developed and optimized from a kit produced by Upstate (Millipore). Briefly, this kit contains a biotinylated PIP3 which forms a HTRF (homogeneous time-resolved fluorescence energy transfer) complex when mixed with a Europium labeled anti-GST monoclonal antibody, a GST tagged pleckstrin homology (PH) domain, and Streptavidin-Allophycocyanin (APC). The unlabeled PIP3 produced by PI 3-Kinase activity displaces biotin-PIP3 from the complex resulting in a loss of energy transfer and thus a decrease in signal. Millipore, PI 3-Kinase (human) HTRF™ Assay, technical document associated with catalog# 33-017
Compounds are serially diluted (3-fold in 100% DMSO) across a polypropylene 120 μL mother plate from column 1 to column 12 and column 13 to column 24, leaving columns 6 and 18 containing only DMSO to yield 11 concentrations for each test compound. Once titrations are made, 0.1 μL is transferred to the assay plates (Greiner 784075). This assay plate contains three controls: column 6 with DMSO, and column 18 with alternating 20 μM wortmannin and 40 μM PIP3. […] The PIP3 control is dispensed into the plate manually via a matrix pipettor, 1 μL of 200 μM PIP3 in 1× Reaction buffer to wells 18 B, D, F, H, J, L, N, P.
The PI3-Kinase assay has been developed and optimized from a kit produced by Upstate (Millipore). The assay kit (cat: 33-017) contains seven reagents: 1) 4× Reaction Buffer, 2) PIP2 (1 mM), 3) Stop A, 4) Stop B, 5) Detection Mix A, 6) Detection Mix B, 7) Detection Mix C. In addition the following items were obtained or purchased, PI3Kinase (prepared in-house), 4×PI3K Detection Buffer (Millipore), dithiothreitol (Sigma, D-5545), Adenosine-5′-triphosphate (ATP, Sigma, A-6419), PIP3 (1,2-dioctanoyl-sn-glycero-3[phosphoinositil-3,4,5-triphosphate]tetraammonium salt (Avanti polar lipids, 850186P), DMSO (Sigma, 472301), Wortmannin (Sigma, W-1628).
Prepare 1×PI3Kinase Reaction Buffer by diluting stock 1:4 with de-ionized water, freshly prepared DTT is added at a final concentration of 5 mM on the day of use. Enzyme addition and compound preincubation is initiated by the addition of 2.5 μL of 2× enzyme solution, PI3K alpha in 1× reaction buffer, to all wells using a Multidrop Combi. Plates are incubated at room temperature for 15 minutes. Substrate addition and reaction initiation is completed by the addition of 2.5 μL of 2× substrate solution, PIP2 and ATP in 1× reaction buffer, to all wells using a Multidrop Combi. […] Incubate one hour, evaluate the HTRF signal on the Envision plate reader. […]

T1 sequence (P42336 whole entry): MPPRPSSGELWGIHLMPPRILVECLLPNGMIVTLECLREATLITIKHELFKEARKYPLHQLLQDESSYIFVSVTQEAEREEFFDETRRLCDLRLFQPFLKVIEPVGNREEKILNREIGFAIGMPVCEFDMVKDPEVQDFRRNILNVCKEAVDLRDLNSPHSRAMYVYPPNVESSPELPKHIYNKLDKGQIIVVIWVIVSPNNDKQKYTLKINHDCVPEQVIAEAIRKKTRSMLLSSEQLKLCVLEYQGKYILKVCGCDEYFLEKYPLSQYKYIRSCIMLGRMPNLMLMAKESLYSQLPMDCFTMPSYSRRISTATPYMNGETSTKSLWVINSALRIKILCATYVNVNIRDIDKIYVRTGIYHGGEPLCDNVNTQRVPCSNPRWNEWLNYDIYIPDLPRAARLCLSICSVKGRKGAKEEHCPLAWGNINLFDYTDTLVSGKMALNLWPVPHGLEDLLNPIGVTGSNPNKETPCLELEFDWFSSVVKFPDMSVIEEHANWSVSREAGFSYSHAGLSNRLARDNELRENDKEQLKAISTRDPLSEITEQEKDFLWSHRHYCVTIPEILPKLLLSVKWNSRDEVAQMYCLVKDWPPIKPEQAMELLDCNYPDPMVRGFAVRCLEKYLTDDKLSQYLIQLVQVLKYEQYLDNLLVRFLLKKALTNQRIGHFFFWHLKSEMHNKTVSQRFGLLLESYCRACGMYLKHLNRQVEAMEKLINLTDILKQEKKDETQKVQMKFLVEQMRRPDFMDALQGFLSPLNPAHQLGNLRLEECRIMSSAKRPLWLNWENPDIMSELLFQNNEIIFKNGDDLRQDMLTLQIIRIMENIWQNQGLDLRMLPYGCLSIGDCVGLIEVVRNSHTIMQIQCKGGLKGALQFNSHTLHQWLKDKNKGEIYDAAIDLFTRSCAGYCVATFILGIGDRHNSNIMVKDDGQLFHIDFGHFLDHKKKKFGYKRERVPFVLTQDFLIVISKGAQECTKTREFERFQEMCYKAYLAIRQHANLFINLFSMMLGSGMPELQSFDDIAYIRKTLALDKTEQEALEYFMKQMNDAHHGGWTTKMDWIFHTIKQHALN
T1 sequence (P27986 whole entry partner): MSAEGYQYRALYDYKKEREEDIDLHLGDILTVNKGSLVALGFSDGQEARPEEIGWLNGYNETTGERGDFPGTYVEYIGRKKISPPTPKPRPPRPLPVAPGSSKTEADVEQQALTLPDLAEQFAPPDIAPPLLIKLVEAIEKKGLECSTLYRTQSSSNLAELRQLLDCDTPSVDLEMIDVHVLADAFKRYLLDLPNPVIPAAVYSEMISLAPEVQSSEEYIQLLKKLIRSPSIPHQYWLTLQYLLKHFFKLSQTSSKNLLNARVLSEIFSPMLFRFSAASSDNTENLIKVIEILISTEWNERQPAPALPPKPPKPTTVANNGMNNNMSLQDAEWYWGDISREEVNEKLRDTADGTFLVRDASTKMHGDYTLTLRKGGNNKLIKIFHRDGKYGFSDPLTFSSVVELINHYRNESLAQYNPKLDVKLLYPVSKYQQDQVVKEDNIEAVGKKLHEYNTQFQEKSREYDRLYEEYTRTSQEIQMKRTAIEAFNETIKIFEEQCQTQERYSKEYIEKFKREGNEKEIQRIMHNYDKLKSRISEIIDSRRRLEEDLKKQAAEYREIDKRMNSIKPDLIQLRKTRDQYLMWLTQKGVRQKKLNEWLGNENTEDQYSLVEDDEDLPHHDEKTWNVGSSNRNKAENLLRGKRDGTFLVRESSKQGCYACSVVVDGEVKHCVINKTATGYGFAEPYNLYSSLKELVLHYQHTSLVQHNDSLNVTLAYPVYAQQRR

IC50 [nM]	SMILES
0.02	O=S(=O)(Nc1cc(-c2ccc3ncnc(N4CCOCC4)c3n2)cnc1Cl)c1ccc(F)cc1F [Example 7, N-{2-chloro-5-[4-(4-morpholinyl)pyrido[3,2-d]pyrimidin-6-yl]-3-pyridinyl}-2,4-difluorobenzenesulfonamide]
0.5	COc1ncc(-c2ccc3ncnc(N4CCOCC4)c3n2)cc1NS(=O)(=O)C1CC1 [Example 5, N-{2-(methyloxy)-5-[4-(4-morpholinyl)pyrido[3,2-d]pyrimidin-6-yl]-3-pyridinyl}cyclopropanesulfonamide]
0.7	O=S(=O)(Nc1cncc(-c2ccc3ncnc(N4CCOCC4)c3n2)c1)c1ccccc1 [Example 2, N-{5-[4-(4-morpholinyl)pyrido[3,2-d]pyrimidin-6-yl]-3-pyridinyl}benzenesulfonamide]
2	CN(C)c1ncnc2ccc(-c3cncc(NS(=O)(=O)c4ccccc4)c3)nc12 [Example 1, N-{5-[4-(dimethylamino)pyrido[3,2-d]pyrimidin-6-yl]-3-pyridinyl}benzenesulfonamide]
